Data set [1] has as its system anti OVA-specific IgG1 subclass antibody. The experiment in a line: Adjuvant activity test: anti OVA-specific IgG1 subclass antibody in serum after subcutaneous immunization with OVA. Format: in vivo, BALB/c mice. Particulars: dorsal-subcutaneous. Here is the method: One week later, the secondary immunization was carried out by dorsal-subcutaneous administration of solutions similar to those of the above-mentioned (1) to (5) again. Two weeks from the secondary immunization, the whole blood and spleen were extracted under anesthesia, and the obtained serum sample was measured for anti OVA-specific IgG1 subclass antibody. A method for measurement of the anti OVA-specific IgG1 subclass antibody in Example 1, and the following Examples 2, 4, 7 to 10 and 13 to 16 is as follows.
To a 96 well plate was added 5 μg/ml OVA at 100 μl/well, and the mixture was incubated at 4° C. overnight. After incubation, the mixture was washed three times with 200 μl of PBS-T (PBS (phosphate buffered saline)+0.05% (v/v) Tween 20) per well, and blocked with 100 μl of 5% FCS (fatal calf serum)/PBS solution per well at room temperature for 1 to 2 hr. Thereafter, the mixture was washed three times with PBS-T (200 μl/well), a diluted serum sample (100 μl/well) or the same amount of 5% FCS/PBS solution as a control was added, and the mixture was incubated at 37° C. for 1 hr. Thereafter, the mixture was washed five times with PBS-T (200 μl/well), a diluted biotinylated anti-mouse IgG1 antibody (100 μl/well) was added, and the mixture was incubated at 37° C. for 45 min. Thereafter, the mixture was washed five times with PBS-T (200 μl/well), a diluted anti-biotin-HRP antibody was added (100 μl/well), and the mixture was incubated at 37° C. for another 30 min. Thereafter, the mixture was washed five times with PBS-T (200 μl/well), TMB substrate solution was added (100 μl/well), and the mixture was incubated at room temperature for 10 to 15 min. Thereafter, a reaction quenching liquid (2N sulfuric acid solution) was added (50 μl/well) to discontinue a color developing reaction, and the absorbance (OD Value=450 nm) was measured by a microplate reader.
One week later, the secondary immunization was carried out by dorsal-subcutaneous administration of solutions similar to those of the above-mentioned (1) to (6) again. Two weeks from the secondary immunization, the whole blood and spleen were extracted under anesthesia, and the obtained serum sample was measured for anti OVA-specific IgG1 subclass antibody.
8-Week-old female BALB/c mice were divided into groups (N=6), and each group was primarily immunized by dorsal-subcutaneous administration of (1) ovalbumin (OVA) ([…] administration group), (2) OVA (10 μg) and, as an adjuvant, N,N′-bis(2-heptylundecanoyl)-L-cystine dimethyl ester (SZ23) ([…]), (3) OVA (10 μg) and N,N′-bis(dodecanoyl)-L-cystine dimethyl ester (SZ24) ([…]), and (4) saline (saline single administration group), each per mouse. One week later, the secondary immunization was carried out by dorsal-subcutaneous administration of solutions similar to those of the above-mentioned (1) to (4) again. Two weeks from the secondary immunization, the whole blood was extracted under anesthesia, and the obtained serum sample was measured for anti OVA-specific IgG1 subclass antibody. SZ24 is disclosed in JP-A-4-230359, which is incorporated herein by reference in its entirety.
8-Week-old female BALB/c mice were divided into groups (N=6), and each group was primarily immunized by dorsal-subcutaneous administration of (1) ovalbumin (OVA) ([…] administration group), (2) OVA (10 μg) and, as an adjuvant, N,N′-bis(2-tetradecylhexadecanoyl)-L-cystine dimethyl ester (SZ37) (0.256 μmol) added to saline, (3) OVA (10 μg) and N,N′-bis(2-octadecyleicosanoyl)-L-cystine dimethyl ester (SZ38) (0.256 μmol) added to saline, (4) OVA (10 μg) and SZ37 (0.256 μmol) dissolved or dispersed in 5% αCD-added saline, and (5) OVA (10 μg) and SZ38 (0.256 μmol) dissolved or dispersed in 5% αCD-added saline, each per mouse. One week later, the secondary immunization was carried out by dorsal-subcutaneous administration of solutions or dispersions similar to those of the above-mentioned (1) to (5) again. […]

The nature of data set [2]: Dispersibility investigation test (turbidity, OD 650 nm; photograph). Format: physicochemical. Particulars: for dispersion in 5% αCD-added saline (photograph) / dispersion in saline (photograph): after stirring; for dispersion in saline (photograph): 0.256 μmol in 1 mL saline. As for the experimental part: N,N′-bis(2-tetradecylhexadecanoyl)-L-cystine dimethyl ester (SZ37) and N,N′-bis(2-octadecyleicosanoyl)-L-cystine dimethyl ester (SZ38) (0.256 μmol) were each dispensed to a 2 mL tube containing zirconia beads, saline or 5% α-cyclodextrin (hereinafter to be also simply referred to as αCD)-added saline (1 mL) was added, and the mixture was stirred. The absorbance (OD Value=650 nm) was measured by a microplate reader, and the turbidity was calculated as an index of dispersibility. The measurement method of the turbidity is as follows.
SZ37 and SZ38 (0.256 μmol) were each dispensed to a 2 mL tube containing zirconia beads, saline or 5% αCD-added saline (1 mL) was added, and the mixture was vigorously stirred three times under conditions of 3.15 seconds one time at 6000 rpm. The mixture was dispensed by 200 μL to a 96 well plate, and the absorbance (OD Value=650 nm) was measured by a microplate reader. As a control, kaolinite (1 mg) was dissolved in distilled water (1 L), and the absorbance (OD Value=650 nm) was measured by a microplate reader. The absorbance thereof (OD Value=650 nm) was defined to be turbidity: 1, and the turbidity of each sample was calculated from the ratio with the measured value of kaolinite.
Whether the dispersion state varies depending on the dispersion solvent when SZ37 and SZ38 are dispersed was studied. In the same manner as in Example 10, SZ37 and SZ38 were added 1% β-cyclodextrin (hereinafter to be also referred to simply as βCD)-added saline or 5% αCD-added saline, and the mixture was stirred. The absorbance (OD Value=650 nm) was measured by a microplate reader, and the turbidity was calculated as an index of dispersibility. The measurement method of turbidity as in Example 11.

Setting [3] is: 2.56 μmol in saline with OVA 10 μg, primary + secondary immunization, serum two weeks after, compared to OVA single administration group.
Setting [4] is: 0.256 μmol dispersed in 5% αCD-added saline with OVA 10 μg, compared to control (OVA in 5% αCD-added saline).
Where [5] appears, read: 0.256 μmol dispersed in 5% αCD-added saline with OVA 10 μg, compared to OVA single administration group (OVA in saline).
[6] abbreviates: 0.256 μmol in saline with OVA 10 μg, compared to OVA single administration group.
The mark [7] stands for this setting: 0.256 μmol in 1 mL 5% αCD-added saline.
[8] abbreviates: 0.256 μmol in 1 mL 5% αCD-added saline, compared to dispersion in saline.
The mark [9] stands for this setting: 5% αCD-added saline, compared to dispersion in 1% βCD-added saline.

The values below come from US10100008B2, “Immunostimulating agent” (AJINOMOTO CO., INC., priority 2014, dated 2018).

On to `COC(=O)[C@@H](N)CSSC[C@H](N)C(=O)OC` [(CyssOMe)2, cystine dimethyl ester, reference compound], for which, in data set [1] (setting [3]), the “production of anti OVA-specific IgG1 subclass antibody” value (from here on “production”) is given as “did not show a significant difference”.

Regarding `CC(C)CCCCCCCCCCCCCCC(=O)O` [ISA, isostearic acid, reference compound], the “production” value in data set [1] (5.12 μmol in saline with OVA 10 μg, compared to OVA single administration group) is on record as “did not show a significant difference”.

On to `CCCCCCCCCCCCCCCC(=O)N[C@@H](CSSC[C@H](NC(=O)CCCCCCCCCCCCCCC)C(=O)OC)C(=O)OC` [SZ22, N,N′-bis(hexadecanoyl)-L-cystine dimethyl ester], for which the “production” value in data set [1] (setting [4]) and in data set [1] (setting [3]) was “significantly increased” in each case.

As for `COC(=O)[C@H](CSSC[C@H](NC(=O)C(CCC(C)CC(C)(C)C)C(C)CC(C)(C)C)C(=O)OC)NC(=O)C(CCC(C)CC(C)(C)C)C(C)CC(C)(C)C` (stereo partly drawn) [SZ23′, N,N′-bis[5,7,7-trimethyl-2-(1,3,3-trimethylbutyl)octanoyl]-L-cystine dimethyl ester], the “production” value in data set [1] (setting [3]) is recorded as “significantly increased”.

Regarding `CCCCCCCCCCCC(=O)N[C@@H](CSSC[C@H](NC(=O)CCCCCCCCCCC)C(=O)OC)C(=O)OC` [SZ24, N,N′-bis(dodecanoyl)-L-cystine dimethyl ester, reference compound], the “production” value in data set [1] (setting [3]) is listed as “did not show a significant difference”.

Consider `CCCCC/C=C\C/C=C\CCCCCCCC(=O)N[C@@H](CSSC[C@H](NC(=O)CCCCCCC/C=C\C/C=C\CCCCC)C(=O)OC)C(=O)OC` [SZ28, N,N′-bis(linoleoyl)-L-cystine dimethyl ester, reference compound], for which, in data set [1] (setting [3]), the “production” value was “did not increase significantly”.

In the case of `CCCCCCCCCCCCC(=O)N[C@@H](CSSC[C@H](NC(=O)CCCCCCCCCCCC)C(=O)OC)C(=O)OC` [SZ34, N,N′-bis(tridecanoyl)-L-cystine dimethyl ester], the “production” value in data set [1] (setting [4]) and in data set [1] (setting [3]) was “significantly increased” throughout.

Regarding `CCCCCCCCCCCCCCCCCCCCCCCCCCCCCC(=O)N[C@@H](CSSC[C@H](NC(=O)CCCCCCCCCCCCCCCCCCCCCCCCCCCCC)C(=O)OC)C(=O)OC` [SZ36, N,N′-bis(triacontanoyl)-L-cystine dimethyl ester], the “production” value in data set [1] (setting [4]) and in data set [1] (setting [3]) was “significantly increased” throughout.

`CCCCCCCCCCCCCCC(CCCCCCCCCCCCCC)C(=O)N[C@@H](CSSC[C@H](NC(=O)C(CCCCCCCCCCCCCC)CCCCCCCCCCCCCC)C(=O)OC)C(=O)OC` [SZ37, N,N′-bis(2-tetradecylhexadecanoyl)-L-cystine dimethyl ester]: the “production” value in data set [1] (setting [5]) is reported as “significantly increased”; in data set [1] (setting [6]), “did not increase significantly”. Moreover, the “dispersion in 5% αCD-added saline (photograph)” value in data set [2] (setting [7]) is listed as “could be uniformly dispersed”. For the same molecule, the “turbidity (index of dispersibility)” value in data set [2] (setting [8]) and in data set [2] (setting [9]) was “significantly higher” throughout. For the same molecule, the “dispersion in saline (photograph)” value in data set [2] is “could not be dispersed”.

As for `CCCCCCCCCCCCCCCCCCC(CCCCCCCCCCCCCCCCCC)C(=O)N[C@@H](CSSC[C@H](NC(=O)C(CCCCCCCCCCCCCCCCCC)CCCCCCCCCCCCCCCCCC)C(=O)OC)C(=O)OC` [SZ38, N,N′-bis(2-octadecyleicosanoyl)-L-cystine dimethyl ester], the “production” value in data set [1] (setting [5]) is “significantly increased”; in data set [1] (setting [6]), “did not increase significantly”. The “dispersion in 5% αCD-added saline (photograph)” value in data set [2] (setting [7]) was “could be uniformly dispersed”. Moreover, the “turbidity (index of dispersibility)” value in data set [2] (setting [8]) and in data set [2] (setting [9]) was “significantly higher” in each case. The “dispersion in saline (photograph)” value in data set [2] was “could not be dispersed”.

Turning to `CCCCCCCCCCCCCCCCCCCCCC(=O)N[C@@H](CSSC[C@H](NC(=O)CCCCCCCCCCCCCCCCCCCCC)C(=O)OC)C(=O)OC` [SZ66, N,N′-bis(docosanoyl)-L-cystine dimethyl ester], the “production” value in data set [1] (setting [4]) was “significantly increased”.
